# Test results published in PMC5830615 (Scientific Reports, 2018).
# Assays:
# [1] = test system: H188 (Epac1-based cAMP biosensor); experiment: FRET response of biosensor H188 to cAMP analogs and Epac inhibitors in HEK293-H188-C24 cells; format: cell-based; conditions: for Effect on ΔFRET measured in response to 8-pCPT-2′-O-Me-cAMP-AM: Epac inhibitor co-applied
# From the text: H188 contains the cAMP sensor Epac1 in which the full-length protein is truncated to remove the Disheveled, Egl-10, and Pleckstrin (DEP) membrane-targeting domain so that its expression is confined largely to the cytoplasm (Fig. 2a,b)[30]. T781A and F782A mutations introduced within the CDC25 homology domain disrupt guanine nucleotide exchange factor (GEF) activity so that binding of cAMP to H188 is not linked to downstream signaling events mediated by the Epac1 effector protein Rap1 GTPase (Fig. 2a)[30]. In H188 the Epac1 backbone is flanked by an mTurquoise2Δ FRET donor chromophore at the N-terminus, and tandem cp173 Venus-Venus FRET acceptor chromophores at the C-terminus (Fig. 2a). Binding of cAMP reduces FRET so that when exciting with 440 nm light, there is an increase of 485 nm (mTuquoise2Δ) and a decrease of 535 nm (cp173 Venus-Venus) emission fluorescence. This ΔFRET is measured as an increase of the 485/535 nm FRET ratio.
# HEK293-H188-C24 cells stably expressing H188 were plated at 80% confluence on 96-well clear-bottom assay plates (Costar 3904, Corning, NY) coated with rat tail collagen (Collaborative Biomedical Products, Bedford, MA). HEK293 cells stably expressing select GPCRs were transduced for 16 hours with H188 virus at a density of ca. 60,000 cells/well under conditions in which the multiplicity of infection (m.o.i.) was equivalent to 25 viral particles per cell. For all assays, the culture media was then removed and replaced by 200 μl/well of a standard extracellular saline (SES) solution supplemented with 11 mM glucose and 0.1% BSA[31],[34]–[36]. The composition of the SES was (in mM): 138 NaCl, 5.6 KCl, 2.6 CaCl2, 1.2 MgCl2, 11.1 glucose, and 10 Hepes (295 mOsmol, pH 7.4). Real-time kinetic assays of FRET were performed using a FlexStation 3 microplate reader equipped with monochromators (Molecular Devices, Sunnyvale, CA). Excitation light was delivered at 435/9 nm (455 nm cut-off), and emitted light was detected at 485/15 nm (CFP) or 535/15 nm (YFP)[31],[34]–[36]. The emission intensities were the averages of 12 excitation flashes for each time point per well. Test solutions dissolved in SES were placed in V-bottom 96-well plates (Greiner Bio-One, Monroe, NC), and an automated pipetting procedure was used to transfer 50 μl of each test solution to each well of the assay plate containing monolayers of these cells. The 485/535 emission ratio was calculated for each well and the mean +/− s.d. values for 12 wells were averaged. To facilitate comparisons amongst different experiments, these FRET ratio values were normalized using baseline subtraction so that a y-axis value of 1 corresponds to the initial baseline FRET ratio, whereas a value of 2 corresponds to a doubling of the FRET ratio. The time course of the ΔFRET ratio was plotted after exporting data to Origin 8.0 (OriginLab, Northampton, MA). Origin 8.0 was also used for generation of Hill plots describing dose-response relationships.
# [2] = target: T1, human NPY2R (Homo sapiens, UniProt P49146); experiment: FRET assay, inhibition of adenosine-stimulated cAMP production in HEK293-H188-C24 cells transfected with human NPY2R; format: cell-based; conditions: BIIE0246 300 nM; adenosine 2 μM
# T1 construct: 3xHA (own knowledge: 'TN' in the cDNA Resource Center clone ID denotes an N-terminal 3xHA tag); host or cells: HEK293-H188-C24 (transient transfection, pcDNA3.1)
# T1 sequence (P49146 1-381): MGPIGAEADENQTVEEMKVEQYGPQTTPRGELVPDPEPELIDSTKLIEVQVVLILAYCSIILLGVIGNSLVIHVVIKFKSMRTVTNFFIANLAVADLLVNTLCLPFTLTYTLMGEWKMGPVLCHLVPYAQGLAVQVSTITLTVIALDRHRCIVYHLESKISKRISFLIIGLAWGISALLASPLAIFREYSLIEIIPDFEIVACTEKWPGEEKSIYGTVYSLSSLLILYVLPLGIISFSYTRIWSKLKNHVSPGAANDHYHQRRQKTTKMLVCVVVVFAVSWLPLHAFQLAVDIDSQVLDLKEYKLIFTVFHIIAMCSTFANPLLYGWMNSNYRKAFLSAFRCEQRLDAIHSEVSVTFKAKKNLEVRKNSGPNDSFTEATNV
# Method: (§1) Transient transfections were performed using Lipofectamine and Plus Reagent (Thermo Fisher) using methodology described previously by our laboratory for HEK293 cells. […] Plasmid encoding human NPY2R (I.D. NPYR20TN00) in pcDNA3.1 was from the University of Missouri-Rolla cDNA Resource Center (Rolla, MO). Individual clones of HEK293 cells stably expressing select FRET reporters were obtained by G418 antibiotic resistance selection, as described previously. Adenovirus for transduction of HEK293 cells with H188 was generated by a commercial vendor (ViraQuest, North Liberty, IA) using the shuttle vector pVQAd CMV K-NpA and the H188 plasmid originally created by Klarenbeek and co-workers[30].
# (§2) HEK293-H188-C24 cells stably expressing H188 were plated at 80% confluence on 96-well clear-bottom assay plates (Costar 3904, Corning, NY) coated with rat tail collagen (Collaborative Biomedical Products, Bedford, MA). […] Real-time kinetic assays of FRET were performed using a FlexStation 3 microplate reader equipped with monochromators (Molecular Devices, Sunnyvale, CA). Excitation light was delivered at 435/9 nm (455 nm cut-off), and emitted light was detected at 485/15 nm (CFP) or 535/15 nm (YFP)[31],[34]–[36]. […]
# [3] = test system: human GLP-1R; experiment: FRET cAMP assay in HEK293-GLP-1R cells (stable human GLP-1R) virally transduced with H188; format: cell-based; conditions: HEK293-GLP-1R cells transduced with H188
# Method: (§3) HEK293-H188-C24 cells stably expressing H188 were plated at 80% confluence on 96-well clear-bottom assay plates (Costar 3904, Corning, NY) coated with rat tail collagen (Collaborative Biomedical Products, Bedford, MA). HEK293 cells stably expressing select GPCRs were transduced for 16 hours with H188 virus at a density of ca. 60,000 cells/well under conditions in which the multiplicity of infection (m.o.i.) was equivalent to 25 viral particles per cell. For all assays, the culture media was then removed and replaced by 200 μl/well of a standard extracellular saline (SES) solution supplemented with 11 mM glucose and 0.1% BSA[31],[34]–[36]. The composition of the SES was (in mM): 138 NaCl, 5.6 KCl, 2.6 CaCl2, 1.2 MgCl2, 11.1 glucose, and 10 Hepes (295 mOsmol, pH 7.4). Real-time kinetic assays of FRET were performed using a FlexStation 3 microplate reader equipped with monochromators (Molecular Devices, Sunnyvale, CA). Excitation light was delivered at 435/9 nm (455 nm cut-off), and emitted light was detected at 485/15 nm (CFP) or 535/15 nm (YFP)[31],[34]–[36]. The emission intensities were the averages of 12 excitation flashes for each time point per well.
# [4] = test system: wild-type HEK293 cells; experiment: FRET cAMP assay in wild-type HEK293 cells transduced with H188 (negative control); format: cell-based, human; conditions: WT HEK293 lacking recombinant receptors, H188 virus; IBMX at 50 μM
# Method: as §3
# [5] = test system: HEK293-H188-C24 cells, empty vector (EV); experiment: FRET cAMP assay in HEK293-H188-C24 cells transfected with negative control empty vector; format: cell-based, human; conditions: GLP-1 and exendin-4 at 10 nM
# Method: as §1, §2
# [6] = test system: adenosine A2B receptor; experiment: FRET cAMP assay, endogenous adenosine A2B receptors in untransfected HEK293-H188-C24 cells; format: cell-based, human; conditions: read-out: Kd for antagonist action versus adenosine; versus 4 μM adenosine
# Method: HEK293 cells stably expressing select GPCRs were transduced for 16 hours with H188 virus at a density of ca. 60,000 cells/well under conditions in which the multiplicity of infection (m.o.i.) was equivalent to 25 viral particles per cell. For all assays, the culture media was then removed and replaced by 200 μl/well of a standard extracellular saline (SES) solution supplemented with 11 mM glucose and 0.1% BSA[31],[34]–[36]. […] Real-time kinetic assays of FRET were performed using a FlexStation 3 microplate reader equipped with monochromators (Molecular Devices, Sunnyvale, CA). […] The emission intensities were the averages of 12 excitation flashes for each time point per well.
smiles,measurement,setting,value
"CC(=O)Oc1ccc(CO)cc1 [4-Abn-OH, 4-acetoxybenzyl alcohol]",Effect on ΔFRET measured in response to forskolin,[1],not blocked
N=C(N)NCCC[C@H](NC(=O)CC1(CC(=O)N2CCN(C3c4ccccc4NC(=O)c4ccccc43)CC2)CCCC1)C(=O)NCCn1c(=O)n(-c2ccccc2)n(-c2ccccc2)c1=O (stereo partly shown) [BIIE0246],"Effect on inhibitory actions of EP45 (1,000 nM) and PYY(3–36) (300 nM)",[2],reduced the inhibitory actions
CC1CCc2c(cc(Br)c(F)c2Br)N1C=O (stereo not shown) [CE3F4],Effect on baseline FRET ratio when administered alone,[1],unaffected
same,Effect on ΔFRET measured in response to 8-pCPT-2′-O-Me-cAMP-AM,[1],reduced
Nc1ncnc2c1ncn2[C@H]1CC[C@@H](CO)O1 [DDA],Effect on the cAMP-elevating action of GLP-1,[3],suppressed the action of GLP-1
Cc1ccc(S(=O)(=O)c2c(C)cc(C)cc2C)cc1 [ESI-05],Effect on baseline FRET ratio when administered alone,[1],unaffected
same,Effect on ΔFRET measured in response to 8-pCPT-2′-O-Me-cAMP-AM,[1],without effect
"CC[C@H](C)[C@H](NC(=O)[C@H](Cc1ccccc1)NC(=O)[C@H](CCC(=O)O)NC(=O)[C@H](CCCCN)NC(=O)[C@H](C)NC(=O)[C@H](C)NC(=O)[C@H](CCC(N)=O)NC(=O)CNC(=O)[C@H](CCC(=O)O)NC(=O)[C@H](CC(C)C)NC(=O)[C@H](Cc1ccc(O)cc1)NC(=O)[C@H](CO)NC(=O)[C@H](CO)NC(=O)[C@@H](NC(=O)[C@H](CC(=O)O)NC(=O)[C@H](CO)NC(=O)[C@@H](NC(=O)[C@H](Cc1ccccc1)NC(=O)[C@@H](NC(=O)CNC(=O)[C@H](CCC(=O)O)NC(=O)[C@H](C)NC(=O)[C@@H](N)Cc1c[nH]cn1)[C@@H](C)O)[C@@H](C)O)C(C)C)C(=O)N[C@@H](C)C(=O)N[C@@H](Cc1c[nH]c2ccccc12)C(=O)N[C@@H](CC(C)C)C(=O)N[C@H](C(=O)N[C@@H](CCCCN)C(=O)NCC(=O)N[C@@H](CCCNC(=N)N)C(N)=O)C(C)C [GLP-1, glucagon-like peptide-1]",Effect on levels of cAMP in wild-type HEK293 cells,[4],no such effect
same,Effect on levels of cAMP in empty vector cells,[5],without effect
CCCn1c(=O)c2[nH]c(-c3cnn(Cc4cccc(C(F)(F)F)c4)c3)nc2n(CC)c1=O [GS6201],Kd,[6],163 nM
